According to US20250304928A1, “AN OMEGA-TRANSAMINASE MUTANT BASED ON […] SEQUENCE RECONSTRUCTION” (priority 2021, published 2025):

Legend:
[1] = biological target: T1, Aspergillus terreus ω-transaminase mutant Ancata-101 (D5E-A12Q-I17V-S20A-T21S-E22A-T23S-A42H-I77L-T78S-T85S-L87M-R90K-D96E-Q97E-E104D-T130S-R131K-D134E-I135L-13 (Aspergillus terreus, UniProt Q0C8G1, A12Q/A174S/A195S/A246V/A313P/A42H/D134E/D153E/D5E/D96E/E104D/E22A/E248R/E323S/F250N/F258V/G292D/H210N/I135L/I175M/I17V/I295V/I77L/INS138N/INS325KKSG/L87M/M288K/N245D/N322E/N325S/Q236E/Q294K/Q97E/R131K/R266Q/R324A/R90K/S20A/T130S/T21S/T23S/T284S/T78S/T85S/V143I/V157T/V162I/V163I/V188T)); test: Enzyme kinetic parameters of mutant ω-transaminase Ancata-101; assay type: biochemical
T1 construct: ancestral reconstruction Ancata-101
Procedure: (§1) The enzyme activity of wild type and mutant ω-transaminase at different concentrations was determined by enzyme activity assay. The reaction rates V for different substrates as well as different substrate concentrations [S] were brought into the Michaelis-Menten equation V=Vmax×[S]/(Km+[S]), nonlinear curve fit was performed using Origin 8.0 software, and the enzyme kinetic parameters Km and Vmax were calculated for wild type and mutants; the conversion number kcat and catalytic efficiency kcat/Km were calculated for wild type and mutants from the equation kcat=Vmax/[E], where [E] was the molar concentration of the enzyme.

[2] = biological target: T2, Aspergillus terreus ω-transaminase mutant Ancata-124 (D5E-A12Q-I17V-S20A-T21S-E22A-T23S-A42H-I77L-T78S-T85A-R90K-D96E-Q97E-E104D-T130S-R130K-I135L-138insN-V143I (Aspergillus terreus, UniProt Q0C8G1, A12Q/A195S/A246V/A313P/A42H/D153E/D5E/D96E/E104D/E22A/E248R/E323S/F250N/F258V/G292D/H210N/I135L/I17V/I295V/I77L/INS138N/INS325KS/L263M/M154V/M288K/N245D/N322E/N325S/Q236E/Q294K/Q97E/R131K/R266Q/R324A/R90K/S20A/T130S/T21S/T23S/T284S/T78S/T85A/V143I/V157T/V162I/V163I)); test: Enzyme kinetic parameters of mutant ω-transaminase Ancata-124; assay type: biochemical
T2 construct: ancestral reconstruction Ancata-124
Procedure: as §1

[3] = biological target: Aspergillus terreus ω-transaminase, wild type (WT-AT), SEQ ID NO. 2 (Aspergillus terreus, UniProt Q0C8G1); test: Enzyme kinetic parameters of wild type ω-transaminase (WT-AT); assay type: biochemical; details: PBS 50 mM, pH 8.0, 0.01 mM PLP
Procedure: The wild-type ω-transaminase from Aspergillus terreus has an amino acid sequence as shown in SEQ ID NO. 2, and has a gene sequence as shown in SEQ ID NO. 1.
as §1

C[C@@H](N)c1ccccc1 [4] = test: Enzyme kinetic parameters of mutant ω-transaminase Ancata-101; assay type: biochemical, Aspergillus terreus; details: other: PBS 50 mM, pH 8.0, 0.01 mM PLP
CC(=O)C(=O)O [5] = test: as above; assay type: biochemical, Aspergillus terreus; details: other: PBS 50 mM, pH 8.0, 0.01 mM PLP
C[C@@H](N)c1ccccc1 [6] = test: Enzyme kinetic parameters of mutant ω-transaminase Ancata-124; assay type: biochemical, Aspergillus terreus; details: other: PBS 50 mM, pH 8.0, 0.01 mM PLP, 25.0 °C
CC(=O)C(=O)O [7] = test: as above; assay type: biochemical, Aspergillus terreus; details: other: PBS 50 mM, pH 8.0, 0.01 mM PLP, 25.0 °C

In the case of `CC(=O)C(=O)O` [pyruvate, pyruvic acid], the “kcat (pyruvate)” value ([1]; PBS 50 mM, pH 8.0, 0.01 mM PLP) is reported as 1.50 ± 0.03 s⁻¹, the “kcat/Km (pyruvate)” value ([1]; PBS 50 mM, pH 8.0, 0.01 mM PLP) is reported as 1300 M⁻¹ s⁻¹ and the “catalytic efficiency for pyruvic acid compared with wild type” value ([1]; in words, versus wild type) is reported as “lower than that of the wild type”. For the same compound, the “kcat (pyruvate)” value ([2]; PBS 50 mM, pH 8.0, 0.01 mM PLP) was 0.74 ± 0.03 s⁻¹, the “kcat/Km (pyruvate)” value ([2]; PBS 50 mM, pH 8.0, 0.01 mM PLP) was 790 M⁻¹ s⁻¹ and the “catalytic efficiency for pyruvic acid compared with wild type” value ([2]; in words, versus wild type) was “lower than that of the wild type”. The “kcat (pyruvate)” value [3] was 0.50 ± 0.01 s⁻¹, the “kcat/Km (pyruvate)” value [3] was 2220 M⁻¹ s⁻¹ and the Km ([3]; read-out: Km (pyruvate)) was 230 ± 20 µM.
`C[C@@H](N)c1ccccc1` [α-MBA, (R)-(+)-α-methylbenzylamine] was tested, and the “Km (α-MBA) compared with wild type” value ([1]; in words, versus wild type) was “slightly higher than that of the wild type” and the “Km (α-MBA) compared with wild type” value ([2]; in words, versus wild type) was “slightly higher than that of the wild type”.
Work on “Aspergillus terreus ω-transaminase mutant Ancata-101 (D5E-A12Q-I17V-S20A-T21S-E22A-T23S-A42H-I77L-T78S-T85S-L87M-R90K-D96E-Q97E-E104D-T130S-R131K-D134E-I135L-138insN-V143I-D153E-V157T-V162I-V163I-A174S-I175M-V188T-A195S-H210N-Q236E-N245D-A246V-E248R-F250N-F258V-R266Q-T284S-M288K-G292D-Q294K-I295V-A313P-N322E-E323S-R324A-N325S-325insKKSG), SEQ ID NO. 4 (Aspergillus terreus NIH2624; A12Q/A174S/A195S/A246V/A313P/A42H/D134E/D153E/D5E/D96E/E104D/E22A/E248R/E323S/F250N/F258V/G292D/H210N/I135L/I175M/I17V/I295V/I77L/INS138N/INS325KKSG/L87M/M288K/N245D/N322E/N325S/Q236E/Q294K/Q97E/R131K)” yielded a Km (C[C@@H](N)c1ccccc1 [4]) of 280 ± 30 µM and a Km (CC(=O)C(=O)O [5]) of 1150 ± 20 µM.
“Aspergillus terreus ω-transaminase mutant Ancata-124 (D5E-A12Q-I17V-S20A-T21S-E22A-T23S-A42H-I77L-T78S-T85A-R90K-D96E-Q97E-E104D-T130S-R130K-I135L-138insN-V143I-D153E-M154V-V157T-V162I-V163I-A195S-H210N-Q236E-N245D-A246V-E248R-F250N-F258V-L263M-R266Q-T284S-M288K-G292D-Q294K-I295V-A313P-N322E-E323S-R324A-N325S-325insKS), SEQ ID NO. 6 (Aspergillus terreus NIH2624; A12Q/A195S/A246V/A313P/A42H/D153E/D5E/D96E/E104D/E22A/E248R/E323S/F250N/F258V/G292D/H210N/I135L/I17V/I295V/I77L/INS138N/INS325KS/L263M/M154V/M288K/N245D/N322E/N325S/Q236E/Q294K/Q97E/R131K/R266Q/R324A/)” showed a Km (C[C@@H](N)c1ccccc1 [6]) of 280 ± 10 µM and a Km (CC(=O)C(=O)O [7]) of 930 ± 10 µM.
